From ChEMBL document CHEMBL4400510, “Synthesis and antitubercular evaluation of reduced lipophilic imidazo[1,2-a]pyridine-3-carboxamide derivatives” (Eur J Med Chem, 2019)

Legend:
[1] = tested on: Mycobacterium tuberculosis; test: Antitubercular activity against multi drug resistant Mycobacterium tuberculosis 16833 after 7 days by MABA method; type: functional; settings: Mycobacterium tuberculosis, 16833, 168 h
[2] = tested on: Mycobacterium tuberculosis; test: Antitubercular activity against multi drug resistant Mycobacterium tuberculosis 16995 after 7 days by MABA method; type: functional; settings: Mycobacterium tuberculosis, 16995, 168 h
[3] = Selectivity index, ratio of CC50 for African green monkey Vero cells to MIC>90 multi drug resistant Mycobacterium tuberculosis 16995; type: toxicity; settings: read-out: Selectivity Index

Row | SMILES | MIC90 [1] | MIC90 [2] | selectivity ratio [3]
1 | CCc1nc2ccc(Cl)cn2c1C(=O)NCc1ccc(N2CCN(Cc3ccc(OC(F)(F)F)cc3)CC2)cc1 | < 0.035 µM | < 0.035 µM | 
2 | CCc1nc2ccc(Cl)cn2c1C(=O)NCc1ccc(N2CC3CN(CC4CCCCC4)CC3C2)cc1 (configuration not stated) | < 0.035 µM | < 0.035 µM | > 1000
3 | CCc1nc2ccc(Cl)cn2c1C(=O)NCc1ccc(N2CC3CN(c4ccc(OC(F)(F)F)cc4)CC3C2)cc1 (configuration not stated) | < 0.035 µM | < 0.035 µM | 
4 | CCc1nc2ccc(Cl)cn2c1C(=O)NCc1ccc(N2CC3CN(Cc4ccc(OC(F)(F)F)cc4)CC3C2)cc1 (configuration not stated) | < 0.035 µM | < 0.035 µM | > 586
5 | CCc1nc2ccc(Cl)cn2c1C(=O)NCc1ccc(N2CCC3(CC2)CCN(c2ccc(OC(F)(F)F)cc2)CC3)cc1 | < 0.035 µM | < 0.035 µM | > 1000
6 | CCc1nc2ccc(Cl)cn2c1C(=O)NCc1ccc(N2CC3CCC2CN3CC2CCCCC2)cc1 (configuration not stated) | < 0.035 µM | < 0.035 µM | 
7 | CCc1nc2ccc(Cl)cn2c1C(=O)NCc1ccc(N2CCN(CC3CCCCC3)CC2)cc1 | < 0.035 µM | < 0.035 µM | > 1000
8 | NNC(=O)c1ccncc1 [ISONIAZID] | > 40 µM | > 40 µM | 
9 | O=c1nc(N2CCN(CC3CCCCC3)CC2)sc2c([N+](=O)[O-])cc(C(F)(F)F)cc12 [MACOZINONE] | < 0.035 µM | < 0.035 µM | 
10 | CO[C@H]1/C=C/O[C@@]2(C)Oc3c(C)c(O)c4c(O)c(c(/C=N/N5CCN(C)CC5)c(O)c4c3C2=O)NC(=O)/C(C)=C\C=C\[C@H](C)[C@H](O)[C@@H](C)[C@@H](O)[C@@H](C)[C@H](OC(C)=O)[C@@H]1C [RIFAMPIN] | > 40 µM | > 40 µM | 
11 | CCc1nc2ccc(Cl)cn2c1C(=O)NCc1ccc(N2CCC(c3ccc(OC(F)(F)F)cc3)CC2)cc1 [TELACEBEC] | < 0.035 µM | < 0.035 µM | > 1000
